According to US20230250095A1, “BENZIMIDAZOLE DERIVATIVES, PREPARATION METHOD THEREFOR AND MEDICAL USE THEREOF” (TUOJIE BIOTECH(SHANGHAI) CO., LTD., priority 2020, published 2023):
Where two headings read alike, the source gives them in different places.

Key:
CYP2C19 = molecular target: T1, CYP2C19 (Homo sapiens, UniProt P33261); assay: CYP inhibition assay in pooled human liver microsomes (S-mephenytoin); format: in vitro ADME
T1 construct: 150-donor pooled human liver microsomes (purchased from Corning, Cat. No. 452117); tissue Corning 452117; host or cells: 150-donor pooled human liver microsomes
Description: The metabolic reactions of representative substrates of 5 major human CYP subtypes (CYP1A2, CYP2C9, CYP2C19, CYP2D6, CYP3A4/5) were evaluated using 150-donor pooled human liver microsomes (purchased from Corning, Cat. No. 452117). The effects of different concentrations of the test compounds on the metabolic reactions of phenacetin (CYP1A2), diclofenac sodium (CYP2C9), S-mephenytoin (CYP2C19), bufuralol hydrochloride (CYP2D6) and midazolam (CYP3A4/5) were determined by liquid chromatography-tandem mass spectrometry (LC/MS/MS).
30 μM phenacetin, 10 μM diclofenac sodium, 35 μM S-mephenytoin, 5 μM bufuralol hydrochloride, 3 μM midazolam, 1 mM NADPH, and test compounds (at concentrations of 0.1 μmol/L, 0.3 μmol/L, 1 μmol/L, 3 μmol/L, 10 μmol/L, and 30 μmol/L, respectively) or positive compound or blank were incubated with 200 μL of a reaction system of pooled human liver microsomes (0.2 mg/mL) (100 mmol/L phosphate buffer, pH 7.4, containing 0.3% by volume of DMSO, 0.6% by volume of acetonitrile, and 0.1% by volume of methanol) at 37° C. for 5 min. Then, 200 μL of acetonitrile containing 3% formic acid and 40 nM internal standard verapamil was added, and the mixture was centrifuged at 4000 rpm for 50 min. The mixture was cooled on ice for 20 min and centrifuged at 4000 rpm for 20 min to precipitate the protein. 200 μL of the supernatant was analyzed by LC/MS/MS.
The peak area was calculated from the chromatogram. The residual activity rate (%) was calculated by the following formula:
peak area rate=peak area of metabolite/peak area of internal standard
residual activity rate (%)=peak area proportion of the test compound group/peak area proportion of the blank group
The half maximal inhibitory concentrations (IC50) against CYP were calculated by Excel XLfit 5.3.1.3.

[1] = Caco-2 permeability assay; format: in vitro ADME; details: human
Description: The apparent permeability coefficient (Papp) of the analytical drug was determined by liquid chromatography-tandem mass spectrometry (LC/MS/MS) through a Caco-2 cell model.
The transfer rate of drug from the apical end to the basal end was determined. 108 μL of HBSS (25 mM HEPES, pH 7.4) containing 10 μM test compound was added to the apical end of the upper chamber of Transwell (purchased from Corning) containing Caco-2 cells (purchased from ATCC) at a density of 6.86×10^5 cells/cm^2, and meanwhile, 8 μL of the sample was added, as an initial dosing-end sample (A-B), to a new 96-well plate to which 72 μL of HBSS (25 mM HEPES, pH 7.4) and 240 μL of acetonitrile (containing 100 nM alprazolam, 200 nM caffeine and 100 nM tolbutamide) had been added, and the plate was vortexed at 1000 rpm for 10 min. 300 μL of HBSS (25 mM HEPES, pH 7.4) was added to the basal end.
The transfer rate of drug from the basal end to the apical end was determined. 308 μL of HBSS (25 mM HEPES, pH 7.4) containing 10 μM test compound was added to wells of the basal end of the plate, and meanwhile, 8 μL of the sample was added, as an initial dosing-end sample (B-A), to a new 96-well plate to which 72 μL of HBSS (25 mM HEPES, pH 7.4) and 240 μL of acetonitrile (containing 100 nM alprazolam, 200 nM caffeine and 100 nM tolbutamide) had been added. The plate was vortexed at 1000 rpm for 10 min, and 100 μL of HBSS (25 mM HEPES, pH 7.4) was added to the apical end.
The transfer rate from the apical end to the basal end and the transfer rate from the basal end to the apical end need to be determined simultaneously.
At the end of the transfer cycle, 8 μL of the sample was taken from the dosing end (apical end of A-B flow and basal end of B-A flow) and added to 72 μL of HBSS (25 mM HEPES, pH 7.4) and 240 μL of acetonitrile (containing 100 nM alprazolam, 200 nM caffeine and 100 nM tolbutamide), and the mixture was added to a new 96-well plate. 80 μL of the liquid was taken directly from each of the basal end of the A-B flow and the apical end of the B-A flow, and added together with 240 μL of acetonitrile (containing 100 nM alprazolam, 200 nM caffeine and 100 nM tolbutamide) to a new 96-well plate. The plates were vortexed at 1000 rpm for 10 min. The samples were centrifuged at 4000 rpm for 30 min. 100 μL of the supernatant was transferred to a new 96-well plate. All samples were analyzed by LC-MS/MS with 100 μL of pure water.
Data were calculated using Microsoft Excel and peak areas were calculated from the chromatograms. The apparent permeability coefficient (Papp) is in cm/s and is calculated using the following formula: […]
Papp is apparent permeability (cm/s×10^−6);
The outflow ratio can be determined by the following equation: […]

[2] = human liver microsomes 0.2 mg/mL, substrate S-mephenytoin, read-out: CYP 2C19 (μM) IC50

T1 sequence (P33261 whole entry): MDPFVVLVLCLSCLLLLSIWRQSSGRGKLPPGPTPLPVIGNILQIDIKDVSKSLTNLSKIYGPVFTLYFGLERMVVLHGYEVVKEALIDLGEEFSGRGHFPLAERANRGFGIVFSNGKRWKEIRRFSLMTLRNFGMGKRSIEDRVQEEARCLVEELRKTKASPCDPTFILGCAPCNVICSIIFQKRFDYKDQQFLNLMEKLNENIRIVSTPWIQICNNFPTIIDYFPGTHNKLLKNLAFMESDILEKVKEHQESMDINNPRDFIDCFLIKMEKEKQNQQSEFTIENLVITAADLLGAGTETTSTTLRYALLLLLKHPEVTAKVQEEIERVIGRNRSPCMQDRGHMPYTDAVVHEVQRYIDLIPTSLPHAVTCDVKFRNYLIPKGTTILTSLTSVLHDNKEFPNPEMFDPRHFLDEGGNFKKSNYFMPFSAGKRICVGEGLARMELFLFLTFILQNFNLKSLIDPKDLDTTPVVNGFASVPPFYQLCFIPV

| SMILES | IC50 (CYP2C19; [2]) | other results |
| --- | --- | --- |
| COC(=O)N1CCO[C@@H](Cc2c(-c3c(F)cc(N4CCCC4=O)cc3F)nc3cc(C)ccn23)C1 [Compound 9, Methyl (S)-2-((2-(2,6-difluoro-4-(2-carbonylpyrrolidin-1-yl)phenyl)-7-methylimidazo[1,2-a]pyridin-3-yl)methyl)morpholine-4-carboxylate] | – | IC50 (CYP2C19): 12.9 µM |
| CC(=O)N1CCO[C@@H](Cn2c(-c3ccc(N4CCCC4=O)cc3Cl)nc3cc(C)ccc32)C1 [Compound 3, (S)-1-(4-(1-((4-acetylmorpholin-2-yl)methyl)-5-methyl-1H-benzo[d]imidazol-2-yl)-3-chlorophenyl)pyrrolidin-2-one] | > 30 µM | – |
| CC(=O)N1CCOC(Cn2c(-c3c(F)cc(N4CCCC4=O)cc3F)nc3cc(C)ccc32)C1 (stereo in doubt) [Compound 1] | 13 µM | – |
| [2H]C([2H])([2H])c1ccc2c(c1)nc(-c1c(F)cc(N3CCCC3=O)cc1F)n2C[C@H]1CN(C(C)=O)CCO1 [Compound 14, (S)-1-(4-(1-((4-acetylmorpholin-2-yl)methyl)-5-(methyl-d3)-1H-benzo[d]imidazol-2-yl)-3,5-difluorophenyl)pyrrolidin-2-one] | > 30 µM | – |
| COC(=O)N1CCOC(Cn2c(-c3c(F)cc(N4CCCC4=O)cc3F)nc3cc(C)ccc32)C1 (stereo not drawn) [Compound 2, Methyl 2-((2-(2,6-difluoro-4-(2-carbonylpyrrolidin-1-yl)phenyl)-5-methyl-1H-benzo[d]imidazol-1-yl)methyl)morpholine-4-carboxylate] | 14.6 µM | – |
| CC(=O)N1CCO[C@@H](Cn2c(-c3c(F)cc(N4CCCC4=O)cc3Cl)nc3cc(C)ccc32)C1 [Compound 4, (S)-1-(4-(1-((4-acetylmorpholin-2-yl)methyl)-5-methyl-1H-benzo[d]imidazol-2-yl)-3-chloro-5-fluorophenyl)pyrrolidin-2-one] | > 30 µM | Papp A→B at 10 μM ([1]; Caco-2, 10 μM test compound, apical to basal, pH 7.4): 8.1 ×10⁻⁶ cm/s; efflux ratio at 10 μM ([1]; Caco-2, Papp (B-A)/Papp (A-B), read-out: Outflow ratio): 3.8 |
| CC(=O)N1CCO[C@@H](Cn2c(-c3c(F)cc(N4CCCC4=O)cc3F)nc3cc(Cl)ccc32)C1 [Compound 10, (S)-1-(4-(1-((4-acetylmorpholin-2-yl)methyl)-5-chloro-1H-benzo[d]imidazol-2-yl)-3,5-difluorophenyl)pyrrolidin-2-one] | > 30 µM | – |
